We go through one molecule from BindingDB's records for doi:10.1021/acsmedchemlett.0c00533 (Reaction Biology, 2021).

For the assay, the target named is Mitogen-activated protein kinase 14 (Homo sapiens, UniProt Q16539). Briefly: Inhibition of P38alpha (unknown origin).

Where only a bound is given, the exact number is not on record here.

Chain of Mitogen-activated protein kinase 14 (Q16539 whole entry): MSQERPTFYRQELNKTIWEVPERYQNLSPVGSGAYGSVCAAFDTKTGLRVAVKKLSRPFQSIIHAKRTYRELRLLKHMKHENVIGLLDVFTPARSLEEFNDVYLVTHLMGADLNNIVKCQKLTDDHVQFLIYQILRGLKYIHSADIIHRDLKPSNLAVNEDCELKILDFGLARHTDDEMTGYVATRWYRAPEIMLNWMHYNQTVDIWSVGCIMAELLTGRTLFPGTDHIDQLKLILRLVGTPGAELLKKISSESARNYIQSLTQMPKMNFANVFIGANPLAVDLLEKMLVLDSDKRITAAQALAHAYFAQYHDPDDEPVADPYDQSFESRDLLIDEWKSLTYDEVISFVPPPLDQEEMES

As usually defined, the IC50 is the point on the concentration scale where inhibition reaches its midpoint. Read a high IC50 as weaker potency. Take `O=C(Nc1cnn(-c2csc(C(=O)NC3CNC3)c2)c1)Nc1ccccc1Cl`: the half-maximal inhibitory concentration (IC50) was above 20 µM.
